Values after ≈ are worked out from the molar mass of the structure shown. Marks after values point to notes of the source that are not given here.
What was measured:
[1] = test system: H. pylori clinical isolates KA1-KA7 and ATCC 43504; test: Anti-Helicobacter pylori activity, disk diffusion method; format: cell-based; settings: for susceptibility by disc diffusion (in words): all the isolates of H. pylori
Method: Clinical isolates were symbolized from KA1 to KA7. Isolates were grown in Brucella agar plates (Difco, Detroit, Mich., USA) containing 10% v/v sheep serum at 37° C. Identification was carried out using Gram stain and catalase, oxidase and urea hydrolysis activities. Helicobacter pylori ATCC 43504 was used as control. Determination of the amino acid-sulfanilamide hybrid activity against H. pylori was carried out using disk diffusion method (McNulty C, Owen R., Tompkins […]., Price A., Smith G. and […]. (2002). Helicobacter pylori susceptibility testing by disc diffusion. Journal of Antimicrobial Chemotherapy, 49: 601-609). The amino acid-sulfanilamide hybrid compound was dissolved in 2% Tween (v/v), in order to obtain final concentration of 2 mg/ml.

[2] = test system: liver and kidney functions of rats; test: Effect on liver and kidney functions; format: in vivo, Male Wister rats; settings: 100 mg/kg orally for 15 days
Method: Male Wister rats were divided into 2 equal groups each of 10 rats. The 1st group was left as a control and administrated the vehicle orally, while the 2nd group was orally administrated the synthesized compound in a dose of 100 mg/kg for 15 days. After the examination period, 6 hr after the last dose blood samples were collected from the orbital plexus of rats. Samples were left to clot at room temperature for 30 min then centrifuged at 1000 rpm for 20 min. The collected sera were used for determination of the activity of both (AST) aspirate aminotransferase and (ALT) alanine aminotransferase as liver markers. In addition, levels of blood urea, serum creatinine were also estimated as kidney markers ([…]., Al-Jaber N. A., Moses […]. and Zain M. E. (2013). Antiulcerogenic Activities of the Extracts and Isolated Flavonoids of Euphorbia cuneata Vahl. Phytother. Res. 27: 126-130).

[3] = test system: H. pylori clinical isolates KA1-KA7 and ATCC 43504; test: Minimum inhibitory concentration (MIC), broth microdilution assay; format: cell-based; settings: Helicobacter pylori
Method: A total of seven clinical isolates of H. pylori were isolated from 19 biopsies received from patients diagnosed with gastritis or peptic ulcer disease at Al-Kasr Al-Ainy hospital, Cairo, Egypt. Clinical isolates were symbolized from KA1 to KA7. Isolates were grown in Brucella agar plates (Difco, Detroit, Mich., USA) containing 10% v/v sheep serum at 37° C.
Identification was carried out using Gram stain and catalase, oxidase and urea hydrolysis activities. Helicobacter pylori ATCC 43504 was used as control.
The Minimum inhibitory concentration (MIC) was carried out by the broth microdilution assay (EUCAST, 2003). A total of 100 μL of BHI broth supplemented with 10% defibrinated sheep blood inoculated with 6×10^8 H. pylori (McFarland turbidity standard 2) and 100 μL A of serial dilutions of amino acid-sulfanilamide hybrid compound dissolved in 2% Tween (v/v) was added to each well in the microplate, to reach final concentrations of 12.5; 25; 50; 100; 200; 400 and 800 μg/ml. The microplate was incubated at 37° C. under microaerophilic conditions in an atmosphere of 5-15% O2 and 5-10% CO2, for 48-72 h. After incubation, the plates were visually examined, the optical density was determined at 450 nm and each well was replicated in blood agar (Mueller-Hinton agar with 5% sheep blood), to determine the MIC.

[4] = test system: absolute alcohol-induced ulcer in rats; test: Antiulcerogenic activity, absolute ethanol-induced ulcer model; format: in vivo, male Wistar rats
Method: Evaluation of the anti-ulcerogenic activity was carried out using absolute ethanol-induced ulcer model (Bighettia A. E., Antonio M. A., Kohna L. K., Rehdera V. L. G., Foglioa M. A., Possentia A., Vilelaa L., Carvalho J. E. (2005). Antiulcerogenic activity of a crude hydroalcoholic extract and coumarin isolated from Mikania laevigata Schultz Bip. Phytomedicine, 12, 72-77). Thirty male Wistar rats were divided into 5 groups each of 6 rats. Group 1 received the vehicle and served as control, group 2 received ranitidine (100 mg/kg) and served as standard, groups 3, 4 and 5 received the synthesized compound at doses 25, 50 and 100 mg/kg respectively.
Rats of all groups were fasted for 24 h then all medications were administered orally. One hour after treatment, the animals received an oral dose of absolute ethanol (1 ml/200 g) and then sacrificed one hour later, by ether inhalation, the stomachs were rapidly removed, opened along their greater curvature and gently rinsed under running tap water.
Number of lesions in the glandular part of the stomach were measured under an illuminated magnifying microscope (10×). Long lesions were counted and their lengths were measured. Petechial lesions were counted, and then each five petechial lesions were taken as 1 mm of ulcer.
The lesion scores: The mucosal lesions were quantified by the scoring system (0-5) 0=no damage, 1=Local edema and inflammation without ulcers; 2=One ulcer without inflammation; 3=one to two ulcers with inflammation & lesion diameter <1 cm; 4=More than two ulcers with lesion diameter 1-2 cm; 5=Sever ulceration with lesion diameter >2 cm (Morris et al., 1989).
Ulcer index: To calculate the ulcer index (mm), the sum of the total length of long ulcers and petechial lesions in each group of rats was divided by its number. The curative ratio was determined according to the formula: % Protection of control ulcer=Control UI−Test UI/Control UI×100

[5] = rat serum, 6 hr after last dose, mean ± SD, n=10

SMILES: CC1(C)S[C@@H]2[C@H](NC(=O)[C@H](N)c3ccc(O)cc3)C(=O)N2[C@H]1C(=O)O [Amoxicillin, amoxicillin]
- Inhibition zone ([1]; H. pylori ATCC 43504, disk (30 μg)): 33 mm
- Inhibition zone ([1]; H. pylori KA1, disk (30 μg)): 22 mm
- Inhibition zone ([1]; H. pylori KA2, disk (30 μg)): 23 mm
- Inhibition zone ([1]; H. pylori KA3, disk (30 μg)): 24 mm
- Inhibition zone ([1]; H. pylori KA4, disk (30 μg)): 23 mm
- Inhibition zone ([1]; H. pylori KA5, disk (30 μg)): 25 mm
- Inhibition zone ([1]; H. pylori KA6, disk (30 μg)): 26 mm
- Inhibition zone ([1]; H. pylori KA7, disk (30 μg)): 27 mm
- susceptibility by disc diffusion (in words) [1]: sensitive

SMILES: CC(C)CC(NCC(=O)Nc1ccc(S(N)(=O)=O)cc1)C(=O)O (stereo not shown) [Compound 5, 4-Methyl-2-[2-oxo-2-(4-sulfamoylphenylamino)ethylamino]pentanoic acid]
- ALT [2, 5]: 38.67 ± 0.22 U/l
- AST [2, 5]: 63.23 ± 0.39 U/l
- Creatinine [2, 5]: 0.85 ± 0.02 mg/dL
- hepatotoxic manifestation ([2]; rats): didn't reveal hepatotoxic manifestation
- nephrotoxic manifestations ([2]; rats): no apparent nephrotoxic manifestations
- Blood Urea ([2]; rats, 6 hr after last dose, mean ± SD, n=10): 65.50 ± 1.9 mg/dL
- Inhibition zone ([1]; H. pylori ATCC 43504, disk (2 mg)): 16 mm
- Inhibition zone ([1]; H. pylori KA1, disk (2 mg)): 18 mm
- Inhibition zone ([1]; H. pylori KA2, disk (2 mg)): 15 mm
- Inhibition zone ([1]; H. pylori KA3, disk (2 mg)): 16 mm
- Inhibition zone ([1]; H. pylori KA4, disk (2 mg)): 15 mm
- Inhibition zone ([1]; H. pylori KA5, disk (2 mg)): 15 mm
- Inhibition zone ([1]; H. pylori KA6, disk (2 mg)): 17 mm
- Inhibition zone ([1]; H. pylori KA7, disk (2 mg)): 19 mm
- susceptibility by disc diffusion (in words) [1]: sensitive
- MIC ([3]; ATCC43504, H. pylori ATCC 43504): 50 µg/mL (≈ 146 µM)
- MIC ([3]; ATCC43504, H. pylori KA1): 50 µg/mL (≈ 146 µM)
- MIC ([3]; ATCC43504, H. pylori KA2): 50 µg/mL (≈ 146 µM)
- MIC ([3]; ATCC43504, H. pylori KA3): 50 µg/mL (≈ 146 µM)
- MIC ([3]; ATCC43504, H. pylori KA4): 50 µg/mL (≈ 146 µM)
- MIC ([3]; ATCC43504, H. pylori KA5): 50 µg/mL (≈ 146 µM)
- MIC ([3]; ATCC43504, H. pylori KA6): 25 µg/mL (≈ 72.8 µM)
- MIC ([3]; ATCC43504, H. pylori KA7): 12.5 µg/mL (≈ 36.4 µM)
- % protection (of control ulcer) ([4]; oral 25 mg/kg): 16.7%
- score (lesion score 0-5) ([4]; oral 25 mg/kg): 2.2
- no of ulcers ([4]; oral 25 mg/kg, mean, n=6): 11.1*
- % protection (of control ulcer) ([4]; oral 50 mg/kg): 59%
- score (lesion score 0-5) ([4]; oral 50 mg/kg): 1.6
- no of ulcers ([4]; oral 50 mg/kg, mean, n=6): 8**
- % protection (of control ulcer) ([4]; oral 100 mg/kg): 66.7%
- score (lesion score 0-5) ([4]; oral 100 mg/kg): 1.4
- no of ulcers ([4]; oral 100 mg/kg, mean, n=6): 6.2***
- anti-ulcerogenic activity (in words) ([4]; oral 25-100 mg/kg): potent dose dependent anti-ulcerogenic activity

SMILES: CC[C@H]1OC(=O)[C@H](C)[C@@H](O[C@H]2C[C@@](C)(OC)[C@@H](O)[C@H](C)O2)[C@H](C)[C@@H](O[C@@H]2O[C@H](C)C[C@H](N(C)C)[C@H]2O)[C@](C)(O)C[C@@H](C)C(=O)[C@H](C)[C@@H](O)[C@]1(C)O [Erythromycin, erythromycin]
- Inhibition zone ([1]; H. pylori ATCC 43504, disk (15 μg)): 29 mm
- Inhibition zone ([1]; H. pylori KA1, disk (15 μg)): 21 mm
- Inhibition zone ([1]; H. pylori KA2, disk (15 μg)): 22 mm
- Inhibition zone ([1]; H. pylori KA3, disk (15 μg)): 24 mm
- Inhibition zone ([1]; H. pylori KA4, disk (15 μg)): 23 mm
- Inhibition zone ([1]; H. pylori KA5, disk (15 μg)): 21 mm
- Inhibition zone ([1]; H. pylori KA6, disk (15 μg)): 25 mm
- Inhibition zone ([1]; H. pylori KA7, disk (15 μg)): 24 mm
- susceptibility by disc diffusion (in words) [1]: sensitive

SMILES: CNC(=C[N+](=O)[O-])NCCSCc1ccc(CN(C)C)o1 [Ranitidine, ranitidine, reference compound]
- % protection (of control ulcer) ([4]; oral 100 mg/kg): 45.05%
- score (lesion score 0-5) ([4]; oral 100 mg/kg): 2.2
- no of ulcers ([4]; oral 100 mg/kg, mean, n=6): 6.9***
- ulcer index ([4]; oral 100 mg/kg, mean, n=6): 6.0* mm
